Laboratory results as given in patent US9655878B2, “Composition comprising coumestrol or a bean extract containing coumestrol” (AMOREPACIFIC CORPORATION, priority 2010, dated 2017).

Columns and labels:
[1] = test system: 3T3-L1 mouse preadipocytes; assay: Inhibition of adipocyte differentiation, Oil Red O staining of triglycerides; format: cell-based; parameters: dose or concentration left out as unconfirmed; conditions: coumestrol administered continuously, about 7 days differentiation; compared with rosiglitazone and berberine
Description: (§1) In order to evaluate the coumestrol's effect of inhibiting adipocyte differentiation, […] coumestrol (CMS) was administered continuously while 3T3-L1 mouse preadipocytes (CL-173, ATCC) were differentiated into adipocytes. […] Rosiglitazone (Rosi), which is known to promote adipocyte differentiation, was used as positive control and […] berberine (BBR), which is known to inhibit adipocyte differentiation, was used as negative control. On the day when adipocyte differentiation was started and on days 2, 4 and 6, the test substance was administered and the medium was changed. The adipocyte differentiation was carried out for about 7 days when the adipocyte differentiation was completed in the positive control group.
Then, differentiation of adipocytes was identified by staining triglycerides in the cells with Oil Red O (Sigma).

[2] = test system: aP2, Acrp30, PPAR, SREBP1c and FAS mRNA in adipocytes; assay: Expression of adipocyte-specific genes by Q-PCR; format: cell-based, mouse; parameters: dose or concentration left out as unconfirmed; conditions: coumestrol, relative to untreated group
Description: as §1
Also, expression of adipocyte-specific genes in the in the adipocytes was investigated by Q-PCR. The genes tested were aP2 (fatty acid binding protein 4, adipocyte specific type), Acrp30 (adiponectin), PPAR (peroxisome proliferator-activated receptor), SREBP1c (sterol regulatory element binding protein 1c) and FAS (fatty acid synthase), which are used as molecular markers of adipocyte differentiation and fatty acid synthesis.

mouse spleen cells = assay: Immune cell proliferating activity (CCK-8); format: cell-based, ICR mouse; conditions: 44 hours, relative to untreated group (100)
Description: Spleen was aseptically removed from an ICR mouse sacrificed by cervical dislocation. The spleen was washed with an RPMI 1640 solution and lightly smashed with a sterilized glass rod to isolate the mouse spleen cells. A suspension of the isolated cells was passed through a 200-mesh stainless steel sieve (Sigma Chemical Co., St. Louis, Mo., USA) and centrifuged for 10 minutes at 4° C. and 3,000 rpm in a 50-mL centrifuge tube. The resulting cell pellets were suspended in a lysing buffer (Tris-buffered ammonium chloride; 0.87% NH4Cl, pH 7.2) for 5 minutes to remove red blood cells. The cells were washed twice with RPMI by centrifugal washing, diluted to 5.0×10^6 cells/mL in 10%-FBS RPMI 1640, and seeded on a 96-well plate, with 90 μL per each well, for measurement of cell proliferating activity. After preparing a stock solution such that the final concentration of coumestrol was 0.1 or 1 μM and adding 10 μL to each well, the cells were cultured for 44 hours and the proliferating activity of the spleen cells was measured (CCK-8, Dojindo Laboratories, Japan). 10 μL of 10 μg/mL LPS was used as positive control.

[3] = test system: Human umbilical vein endothelial cells (HUVECs); assay: Nicotine detoxifying effect, viability of vascular endothelial cells; format: cell-based; conditions: HUVEC, 25 mM nicotine, 24 hours, relative to untreated group, nicotine only 55.1
Description: Human umbilical vein endothelial cells (HUVECs, CRL-2873, ATCC) were used to evaluate the coumestrol's effect against nicotine which is a major toxic substance included in cigarettes. HUVECs were cultured under the condition of 37° C. and 5% CO2 using the microvascular endothelial cell growth medium-2 (EGM-2). The cells were seeded onto a 96-well plate, with 2×10^4 cells per well, and cultured for about 24 hours in a medium containing 10% FBS until ˜80% confluency. After treating with nicotine to a final concentration of 25 mM, the cells were cultured for 24 hours with 0.1, 1 or 10 μM coumestrol, except for the negative control group.

SH-SY5Y cells [4] = assay: cells; format: cell-based; conditions: Homo sapiens, read-out: Viability of nerve cells (%)
Description: (§2) SH-SY5Y cells (CRL-2266, ATCC) were used to evaluate the coumestrol's effect of protecting nerve cells from neurotoxins. The cells were cultured in a medium comprising 90% DMEM, 10% fetal calf serum, 100 IU/mL penicillin and 100 μg/mL streptomycin under the condition of 37° C. and 5% CO2. When the cells grew confluent, they were harvested with trypsin, diluted on a 96-well plate to 1×10^4 cells per well, and then grafted onto a culture dish. 24 hours later, after treating the cultured cells with 0.01, 0.1 or 1 μM coumestrol, the cells were treated with 50 μM 6-OHDA 2 hours later to induce cytotoxicity. A negative control group was treated only with 50 μM 6-OHDA. Also, mitochondrial potential of the cells was measured using the JC-1 fluorescent reagent (Beyotime, China).

SH-SY5Y cells [5] = assay: Inhibition of decline of mitochondrial potential (JC-1); format: cell-based; conditions: 50 μM 6-OHDA, negative control 0
Description: as §2

SH-SY5Y cells [6] = assay: Scavenging of reactive oxygen species produced by 6-OHDA (DCFH-DA); format: cell-based; conditions: 50 μM 6-OHDA, 6 hours, relative to negative control
Description: The same cells used in Test Example 4-1 were cultured under the same condition. The cultured cells were treated with 0.01, 0.1 or 1 μM coumestrol and then treated with 50 μM 6-OHDA 2 hours later to induce increase of reactive oxygen species (ROS) in the cells. After culturing the cells for 6 hours in an incubator, the quantity of ROS in the cells was measured using DCFH-DA and the decrease of the ROS was evaluated relative to the negative control group. The fluorescence intensity of DCF was measured with the Wallac VICTOR2 fluorometer (Wallac, Turku, Finland) at excitation wavelength of 485 nm and emission wavelength of 530 nm. ROS scavenging effect (%) relative to the negative control group was calculated from the measured fluorescence intensity.

[7] = cited from earlier work

SMILES: O=c1oc2cc(O)ccc2c2oc3cc(O)ccc3c12 [Coumestrol, 3,9-dihydroxy-6H-benzofuro(3,2-c)(1)benzopyran-6-one]
- adipocyte differentiation (Oil Red O stained area) [1]: remarkably decreased
- mRNA expression of the molecular markers of adipocyte differentiation and fatty acid synthesis [2]: remarkably decreased
- activity at 0.1 µM (mouse spleen cells; 0.1 μM): 278%
- activity at 1 µM (mouse spleen cells; 1 μM): 283%
- viability at 0.1 µM ([3]; 0.1 μM): 67.2%
- viability at 1 µM ([3]; 1 μM): 72.2%
- viability at 10 µM ([3]; 10 μM): 88.9%
- viability at 0.01 µM (SH-SY5Y cells [4]): 94.4%
- viability at 0.1 µM (SH-SY5Y cells [4]): 96.5%
- viability at 1 µM (SH-SY5Y cells [4]): 98.2%
- Effect of inhibiting decline of mitochondrial potential (%) (SH-SY5Y cells [5]; 0.01 μM): 13.2%
- Effect of inhibiting decline of mitochondrial potential (%) (SH-SY5Y cells [5]; 0.1 μM): 29.1%
- Effect of inhibiting decline of mitochondrial potential (%) (SH-SY5Y cells [5]; 1 μM): 43.0%
- ROS scavenging effect (%) (SH-SY5Y cells [6]; 0.01 μM): 73.0%
- ROS scavenging effect (%) (SH-SY5Y cells [6]; 0.1 μM): 86.7%
- ROS scavenging effect (%) (SH-SY5Y cells [6]; 1 μM): 93.5%
- bioavailability upon oral administration [7]: about 11.7%
